Results published in patent US20100034878A1 (priority 2006, published 2010).
Like-named read-outs stand apart in the source and are kept apart here.

Experiments:
CYP 2C9 = CYP 2C9 (Homo sapiens, UniProt P11712); conditions: cited from earlier work
[1] = daily vitamin K supplementation and INR stability in patients with very unstable INRs; type: in vivo; conditions: eight patients with very unstable INR on VKA
Description: The recommended dietary allowance for vitamin K is approximately 70 mcg. […] In addition, the administration of a VKA often requires that the patient take a half tablet on some days while other patients may require 1.5 or 2 tablets on other days. Consequently, the workable range of vitamin K per tablet is 10 mcg to 600 mcg, the preferred range is 25 mcg to 400 mcg, and the most preferred is 50 mcg to 200 mcg.
It was tested whether daily vitamin K supplementation would improve stability of the INR in patients who had very unstable INRs. […] The VKORC1 status itself was not assessed because the test was done prior to the VKORC1 gene being identified. INR values were collected for several months before and after daily vitamin K was started in eight patients with very unstable INR values.

[2] = in vivo; cited from earlier work
[3] = in vivo; cited from earlier work; remark: listed apart in the source

Chain of CYP 2C9 (P11712 whole entry): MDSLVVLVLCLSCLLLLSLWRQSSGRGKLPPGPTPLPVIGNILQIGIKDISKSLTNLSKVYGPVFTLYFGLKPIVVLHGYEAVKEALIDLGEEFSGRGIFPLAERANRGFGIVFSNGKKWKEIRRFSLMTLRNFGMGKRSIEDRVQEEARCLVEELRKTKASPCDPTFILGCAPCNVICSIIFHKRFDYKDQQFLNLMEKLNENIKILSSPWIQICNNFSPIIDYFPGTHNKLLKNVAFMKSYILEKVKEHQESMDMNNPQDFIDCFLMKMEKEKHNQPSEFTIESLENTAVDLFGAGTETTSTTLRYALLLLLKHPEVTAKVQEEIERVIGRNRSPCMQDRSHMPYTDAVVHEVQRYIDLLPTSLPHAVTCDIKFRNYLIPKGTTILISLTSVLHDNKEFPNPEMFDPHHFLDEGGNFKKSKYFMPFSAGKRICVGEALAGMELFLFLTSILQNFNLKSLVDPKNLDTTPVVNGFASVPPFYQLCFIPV

Question: With `CC(=O)C[C@H](c1ccccc1)c1c(O)c2ccccc2oc1=O` (single isomer, unassigned) [R-isomer of warfarin] as the compound, how does the “metabolism by the 2C9 enzyme” value (CYP 2C9) read?
Answer: not metabolized by the 2C9 enzyme

Question: What does the source list for vitamin K?
Answer: fluctuation of INRs after starting daily vitamin K supplement [1]: fluctuated less; percent of INRs in range after versus before starting daily vitamin K ([1]; daily vitamin K supplement, INR collected several months before and after): more than doubled

Question: With `CC(=O)C[C@@H](c1ccccc1)c1c(O)c2ccccc2oc1=O` (single isomer, unassigned) [S-isomer of warfarin] as the compound, how does the “metabolism by the 2C9 enzyme” value (CYP 2C9; hepatic cytochrome P-450 2C9) read?
Answer: almost totally metabolized by the 2C9 enzyme

Question: For `CCC(c1ccccc1)c1c(O)c2ccccc2oc1=O` (racemic) [Racemic phenprocoumon, phenprocoumon], which “fraction eliminated as the parent drug” value [2] is on record?
Answer: approximately 40%

Question: And the elimination half-life [3]?
Answer: approximately 156 hrs
